Data set [1] can be described thus: in vitro. Particulars: human, MT4 cells.
Description: Selectivity index, ratio of CC50 for cytotoxicity against human MT4 cells to EC50 for antiviral activity against NNRTI-resistant HIV-1 harboring Y188L mutant infected in human MT4 cells
A short description of data set [2]: in vitro. Particulars: human, MT4 cells. This is another data set of the same source.
Description: Selectivity index, ratio of CC50 for cytotoxicity against human MT4 cells to EC50 for antiviral activity against NNRTI-resistant HIV-1 harboring K103N and Y181C mutant infected in human MT4 cells
A short description of data set [3]: Cytotoxicity against human MT4 cells assessed as reduction in cell viability incubated for 5 days by MTT assay. Particulars: time 5 day. It counts as toxicity, cell-based. For orientation: Formazan colour is commonly taken as a measure of viable cells.
The subject of data set [4] is Human immunodeficiency virus 1. As to the kind of experiment: Antiviral activity against NNRTI-resistant HIV-1 harboring K103N mutant infected in human MT4 cells assessed as protection against virus-induced cytopathic effect incubated for 5 days by MTT assay. It counts as functional, organism-based. As to conditions: Human immunodeficiency virus 1, MT4, 120 h. (In general: Cytopathic effects are the visible damage that an infection or toxin causes in cultured cells.)

Data set [5] relates to Human immunodeficiency virus 1. In kind it is functional, organism-based. As to conditions: Human immunodeficiency virus 1, MT4, 120 h.
Data set [6] deals with Human immunodeficiency virus 1. As to the kind of experiment: microbe, parasite or virus in culture. As to conditions: Human immunodeficiency virus 1, IIIB, MT4, 120 h.
Description: Antiviral activity against wild type HIV-1 IIIB infected in human MT4 cells assessed as protection against virus-induced cytopathic effect incubated for 5 days by MTT assay
Data set [7] can be described thus: in vitro. Particulars: human, MT4 cells. This is another data set of the same source.
Description: Selectivity index, ratio of CC50 for cytotoxicity against human MT4 cells to EC50 for antiviral activity against NNRTI-resistant HIV-1 harboring Y181C mutant infected in human MT4 cells
The test system of data set [8] is Human immunodeficiency virus 1. As to the kind of experiment: Antiviral activity against NNRTI-resistant HIV-1 harboring L100I mutant infected in human MT4 cells assessed as protection against virus-induced cytopathic effect incubated for 5 days by MTT assay. It counts as functional, organism-based. As to conditions: Human immunodeficiency virus 1, MT4, 120 h.
Data set [9] concerns Human immunodeficiency virus 1. Put plainly: Antiviral activity against NNRTI-resistant HIV-1 harboring E138K mutant infected in human MT4 cells assessed as protection against virus-induced cytopathic effect incubated for 5 days by MTT assay. It counts as functional, organism-based. As to conditions: Human immunodeficiency virus 1, MT4, 120 h.
Data set [10] can be described thus: in vitro. As to conditions: human, MT4 cells. The source holds these as a separate data set.
Description: Selectivity index, ratio of CC50 for cytotoxicity against human MT4 cells to EC50 for antiviral activity against NNRTI-resistant HIV-1 harboring K103N mutant infected in human MT4 cells
The nature of data set [11]: in vitro. As to conditions: human, MT4 cells. The source holds these as a separate data set.
Description: Selectivity index, ratio of CC50 for cytotoxicity against human MT4 cells to EC50 for antiviral activity against NNRTI-resistant HIV-1 harboring F227L and V106A mutant infected in human MT4 cells
Data set [12] is described as follows: in vitro. Particulars: human, MT4 cells. This is another data set of the same source.
Description: Selectivity index, ratio of CC50 for cytotoxicity against human MT4 cells to EC50 for antiviral activity against wildtype HIV-1 IIIB infected in human MT4 cells
Data set [13] relates to Human immunodeficiency virus 1. Put plainly: Antiviral activity against NNRTI-resistant HIV-1 harboring F227L and V106A double mutant infected in human MT4 cells assessed as protection against virus-induced cytopathic effect incubated for 5 days by MTT assay. As to conditions: Human immunodeficiency virus 1, MT4, 120 h. In kind it is functional, organism-based.
In data set [14] the test system is Human immunodeficiency virus 1. In kind it is functional, organism-based. Particulars: Human immunodeficiency virus 1, MT4, 120 h. This is another data set of the same source.
Data set [15] in a line: in vitro. As to conditions: human, MT4 cells. The source holds these as a separate data set.
Description: Selectivity index, ratio of CC50 for cytotoxicity against human MT4 cells to EC50 for antiviral activity against NNRTI-resistant HIV-1 harboring E138K mutant infected in human MT4 cells
Data set [16] concerns the target Human immunodeficiency virus type 1 reverse transcriptase (Human immunodeficiency virus 1, UniProt Q72547). Put plainly: Inhibition of HIV-1 reverse transcriptase assessed as assessed as reduction of biotin-dUTP incorporation into […] incubated for 1 hrs by ELISA analysis. (In general: ELISA stands for enzyme-linked immunosorbent assay.)
Data set [17] is described as follows: in vitro. As to conditions: human, MT4 cells. This is another data set of the same source.
Description: Selectivity index, ratio of CC50 for cytotoxicity against human MT4 cells to EC50 for antiviral activity against NNRTI-resistant HIV-1 harboring L100I mutant infected in human MT4 cells
In data set [18] the test system is Human immunodeficiency virus 1. It counts as functional, organism-based. As to conditions: Human immunodeficiency virus 1, MT4, 120 h. The source holds these as a separate data set.
For data set [19], the system named is Human immunodeficiency virus 1. Put plainly: Potency index, ratio of efavirenz EC50 to test compound EC50 for antiviral activity against NNRTI-resistant HIV-1 harboring K103N mutant infected in human MT4 cells assessed as protection against virus-induced cytopathic effect incubated for 5 days by MTT assay. As to conditions: time 5 day. It counts as functional.

Another data set has as its target hERG (Homo sapiens, UniProt Q12809). Put plainly: Inhibition of hERG expressed in CHO cells at 0.1 uM at -80 mV holding potential by manual patch-clamp electrophysiology method relative to control. It counts as toxicity, cell-based. Particulars: CHO cells expressing hERG.
Data set [20] is described as follows: Metabolic stability in human liver microsomes assessed as compound remaining measured after 60 mins in the presence of NADPH by LC-MS/MS analysis. In kind it is ADME, Microsome.
Data set [21] is described as follows: Metabolic stability in human liver assessed as intrinsic clearance incubated for 60 mins in the presence of NADPH by LC-MS/MS analysis. In kind it is ADME, tissue-based. As to conditions: read-out: CLH.
Data set [22] can be described thus: Metabolic stability in human liver microsomes assessed as half-life incubated for 60 mins in the presence of NADPH by LC-MS/MS analysis. It counts as ADME, Microsome.
Data set [23] can be described thus: Metabolic stability in human plasma assessed as compound remaining incubated for 120 mins by LC-MS/MS analysis. It counts as ADME, cell-free. As to conditions: read-out: Stability.
A short description of data set [24]: Metabolic stability in human liver microsomes assessed as intrinsic clearance incubated for 60 mins in the presence of NADPH by LC-MS/MS analysis.
The nature of data set [25]: Water solubility of the compound in phosphate buffer at pH 7.0.
Data set [26] is described as follows: Metabolic stability in human plasma assessed as half-life incubated for 120 mins by LC-MS/MS analysis. In kind it is ADME, cell-free.
Data set [27] is described as follows: Water solubility of the compound in phosphate buffer at pH 7.4.
Data set [28] can be described thus: Metabolic stability in human plasma assessed as compound hydrolysis incubated for 120 mins by LC-MS/MS analysis. As to conditions: 2 h. It counts as ADME, cell-free.

Chain of hERG (Q12809 whole entry): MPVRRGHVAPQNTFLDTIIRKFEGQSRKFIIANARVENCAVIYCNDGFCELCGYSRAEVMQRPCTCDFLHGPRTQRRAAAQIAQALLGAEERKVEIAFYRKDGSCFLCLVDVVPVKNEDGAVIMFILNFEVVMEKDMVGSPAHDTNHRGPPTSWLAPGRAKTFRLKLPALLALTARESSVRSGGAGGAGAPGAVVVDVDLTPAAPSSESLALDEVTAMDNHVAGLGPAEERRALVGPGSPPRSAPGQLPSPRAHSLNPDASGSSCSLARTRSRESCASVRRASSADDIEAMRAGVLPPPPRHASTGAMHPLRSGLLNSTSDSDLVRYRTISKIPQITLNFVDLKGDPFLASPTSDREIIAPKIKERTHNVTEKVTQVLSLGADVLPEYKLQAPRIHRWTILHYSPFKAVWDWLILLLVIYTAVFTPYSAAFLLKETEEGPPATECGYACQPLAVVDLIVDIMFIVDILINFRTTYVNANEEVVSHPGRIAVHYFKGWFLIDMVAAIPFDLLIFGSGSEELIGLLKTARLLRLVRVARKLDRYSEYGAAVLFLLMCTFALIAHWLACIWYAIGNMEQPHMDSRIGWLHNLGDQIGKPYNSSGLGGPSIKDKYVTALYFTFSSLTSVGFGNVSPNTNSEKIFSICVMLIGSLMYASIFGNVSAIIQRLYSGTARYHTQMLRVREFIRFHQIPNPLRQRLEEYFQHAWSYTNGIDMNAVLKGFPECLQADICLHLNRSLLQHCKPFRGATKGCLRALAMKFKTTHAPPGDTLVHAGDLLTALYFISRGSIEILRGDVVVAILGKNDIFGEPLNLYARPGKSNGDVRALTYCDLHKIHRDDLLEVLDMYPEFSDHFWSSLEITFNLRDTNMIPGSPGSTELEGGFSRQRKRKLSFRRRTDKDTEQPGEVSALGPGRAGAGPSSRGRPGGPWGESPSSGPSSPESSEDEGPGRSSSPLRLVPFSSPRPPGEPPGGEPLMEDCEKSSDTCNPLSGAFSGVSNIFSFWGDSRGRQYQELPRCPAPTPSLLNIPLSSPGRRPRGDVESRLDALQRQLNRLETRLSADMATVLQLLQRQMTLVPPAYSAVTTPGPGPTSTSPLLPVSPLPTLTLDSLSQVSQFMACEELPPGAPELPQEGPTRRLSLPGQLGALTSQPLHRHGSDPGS

Broadly, the CC50 is the concentration at which the toxic effect on the cells reaches its halfway point. Broadly, the EC50 is the concentration giving half of the maximal effect. In general, IC50 refers to the concentration that gives 50% inhibition. With `C=CC(=O)N1CCc2nc(Nc3ccc(C#N)cc3)nc(Oc3c(C)cc(C#N)cc3C)c2C1`, the selectivity ratio in the data set “in vitro [1]” came to 220; in the data set “in vitro [2]”, 81; in the data set “in vitro [7]” it was 235; in the data set “in vitro [10]”, 956; in the data set “in vitro [11]”, 83; in “in vitro [12]”, 1370. For the same compound, the selectivity ratio in “in vitro [15]” is 246; in the data set “in vitro [17]”, 252. Moreover, the CC50 at 120 h in data set [3] stood at 11100 nM. Besides, the EC50 in [4] came to 11.7 nM; in data set [5], 138 nM; in data set [6] it was 8.12 nM; in data set [8] it was 44.2 nM; in data set [9] it was 45.3 nM; in data set [13], 134 nM. Also, the results for the EC50 in data set [14] and in data set [18] were 50.7 nM and 47.4 nM, respectively. Besides, the IC50 in data set [16] was 71 nM.

`Cc1ccc(C(=O)N2CCc3nc(Nc4ccc(C#N)cc4)nc(Oc4c(C)cc(C#N)cc4C)c3C2)cc1`: the selectivity ratio was above 4810 in “in vitro [1]”; above 1340 in the data set “in vitro [2]”; above 4890 in “in vitro [7]”; above 34000 in the data set “in vitro [10]”; above 774 in “in vitro [11]”; above 34300 in “in vitro [12]”. Besides, the selectivity ratio is above 10300 in “in vitro [15]” and above 2570 in the data set “in vitro [17]”. In addition, the CC50 at 120 h in [3] was above 243000 nM. The EC50 in data set [4] worked out at 7.14 nM; in data set [5], 182 nM; in data set [6], 7.08 nM; in [8], 94.6 nM; in data set [9] it was 23.5 nM; in [13], 314 nM. Besides, the values for the EC50 in [14] and in data set [18] were 50.5 nM and 49.7 nM, respectively. For the same compound, the IC50 in [16] worked out at 236 nM.

With `Cc1cc(C#N)cc(C)c1Oc1nc(Nc2ccc(C#N)cc2)nc2c1CN(C(=O)c1ccc([N+](=O)[O-])cc1)CC2`, the selectivity ratio in “in vitro [1]” is above 5130; in “in vitro [2]” it was above 1470; in the data set “in vitro [7]” it was above 4740; in “in vitro [10]”, above 23400; in the data set “in vitro [11]”, above 848; in “in vitro [12]”, above 30000. Also, the selectivity ratio in “in vitro [15]” is above 6960; in the data set “in vitro [17]”, above 1910. Further, the CC50 at 120 h in data set [3] was above 229000 nM. In addition, the EC50 in data set [4] amounted to 9.81 nM; in data set [5], 156 nM; in data set [6] it was 7.65 nM; in [8] it was 120 nM; in data set [9], 32.9 nM; in data set [13] it was 270 nM. In addition, the EC50 turned out to be 44.6 nM in data set [14] and 48.3 nM in [18]. Moreover, the IC50 in data set [16] worked out at 146 nM.

For the compound `Cc1cc(C#N)cc(C)c1Oc1nc(Nc2ccc(C#N)cc2)nc2c1CN(Cc1ccc(C(N)=O)cc1)CC2`, the selectivity ratio in “in vitro [1]” came out at 5550; in the data set “in vitro [2]”, 1180; in the data set “in vitro [7]”, 2960; in “in vitro [10]”, 12900; in the data set “in vitro [11]” it was 914; in the data set “in vitro [12]”, 15100. Also, the selectivity ratio in “in vitro [15]” is 7560; in the data set “in vitro [17]” it was 1510. Moreover, the “Ratio EC50” value in [19] came to 17. The CC50 at 120 h in data set [3] was found to be 101000 nM. In addition, the EC50 in data set [4] was determined as 7.84 nM; in data set [5], 85.8 nM; in [6], 6.7 nM; in data set [8], 67 nM; in data set [9] it was 13.4 nM; in data set [13] it was 111 nM. The figures for the EC50 in data set [14] and in data set [18] were 183 nM and 34.2 nM, respectively. For the same compound, in data set [16], the IC50 came out at 123 nM.

Usually inhibition stands for how much of the control response was suppressed. The low end stands for a weak effect, the high end for a strong effect. On hERG, `COc1cc(N)c(Cl)cc1C(=O)NC1CCN(CCCOc2ccc(F)cc2)CC1OC` (stereo not drawn) [CISAPRIDE] had an inhibition at 0.1 µM of 64%.

Broadly, the half-life is the time in which the quantity being followed falls by half. A word on the microsomal CLint: it is a measure of how fast metabolising enzymes remove a compound, apart from limits set by blood flow. In general, solubility refers to the concentration that dissolves in the medium under given conditions. Consider `Cc1cc(C#N)cc(C)c1Oc1nc(Nc2ccc(C#N)cc2)nc(N)c1Br` [ETRAVIRINE], for which, in [3], the CC50 at 120 h is above 4610 nM. Besides, the remaining at 1 h in [20] (liver microsomes, read-out: Stability) is 50.2%. In addition, the EC50 in [4] was found to be 3.95 nM; in data set [5], 66.7 nM; in data set [14], 32.1 nM. Besides, the CLint scaled in data set [21] was found to be 19 mL/min/kg. For the same compound, the values for the half-life in data set [22] (liver microsomes) and in data set [26] were 65.5 min and above 289 min, respectively. The remaining at 2 h in data set [23] was 83.2%. In addition, the microsomal CLint at 1 h in [24] (liver microsomes) turned out to be 21.2 µL/min/mg. Besides, the solubility in [25] and in data set [27] (phosphate buffer) was below 1 µg/mL in each case.

On to `CC(C)[N+](C)(CCOC(=O)C1c2ccccc2Oc2ccccc21)C(C)C.[Br-]` [PROPANTHELINE BROMIDE], for which the half-life in [26] is 10 min. For the same compound, the Stability result in [28] is “Unstable”.

Take `Cc1cc(/C=C/C#N)cc(C)c1Nc1ccnc(Nc2ccc(C#N)cc2)n1` [RILPIVIRINE]: the Stability in [20] (microsomes, 1 h) is recorded as 21%. Besides, the CLint scaled in [21] was 97.6 mL/min/kg. In addition, the t1/2 in data set [22] (microsomes, 1 h) was found to be 12.8 min. For the same compound, the microsomal CLint at 1 h in [24] (microsomes) stood at 108 µL/min/mg. In data set [27] (buffer), this compound had a solubility below 1 µg/mL.

These data come from ChEMBL document CHEMBL5331107 (J Med Chem, 2023).
